Results on 17 molecules are retold here after PubChem BioAssay AID200 (DTP/NCI, 2004).

“And” between values parts separate entries of the source, which are not always exact repeats. Equal values may be shown once. Inconclusive results and toxic doses are left out.

The subject of this experiment is B6C3F1 mice, B16 melanoma ip, median survival T/C. Description: NCI In Vivo Anticancer Drug Screen. Data for tumor model B16 Melanoma (intraperitoneal) in B6C3F1 mice. To be noted: endpoint: median survival time, higher = longer survival. The procedure, abridged: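 Readout: survival or tumor size in treated mice relative to vehicle controls (T/C). Model uses transplantable tumors grown in mice.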

Setting [1] is: dose: 0.5 mg/kg/injection, schedule: Q01DX009 (ip), vehicle: saline.
Where [2] appears, read: dose: 1.0 mg/kg/injection, schedule: Q01DX009 (ip), vehicle: saline.
[3] abbreviates: dose: 2.0 mg/kg/injection, schedule: Q01DX009 (ip), vehicle: saline.
The mark [4] stands for this setting: dose: 50.0 mg/kg/injection, schedule: Q01DX009 (ip), vehicle: saline with Tween-80.
Where [5] appears, read: dose: 100.0 mg/kg/injection, schedule: Q01DX009 (ip), vehicle: saline with Tween-80.
Setting [6] is: dose: 200.0 mg/kg/injection, schedule: Q01DX009 (ip), vehicle: saline with Tween-80.
[7] abbreviates: dose: 6.25 mg/kg/injection, schedule: Q01DX009 (ip), vehicle: saline with Tween-80.
Where [8] appears, read: dose: 12.5 mg/kg/injection, schedule: Q01DX009 (ip), vehicle: saline with Tween-80.
Where [9] appears, read: dose: 25.0 mg/kg/injection, schedule: Q01DX009 (ip), vehicle: saline with Tween-80.
Where [10] appears, read: dose: 25.0 mg/kg/injection, schedule: Q01DX009 (ip), vehicle: Klucel (hydroxypropylcellulose) (HPC).
[11] abbreviates: dose: 50.0 mg/kg/injection, schedule: Q01DX009 (ip), vehicle: Klucel (hydroxypropylcellulose) (HPC).
Setting [12] is: dose: 100.0 mg/kg/injection, schedule: Q01DX009 (ip), vehicle: Klucel (hydroxypropylcellulose) (HPC).
Setting [13] is: dose: 200.0 mg/kg/injection, schedule: Q01DX009 (ip), vehicle: Klucel (hydroxypropylcellulose) (HPC).
Setting [14] is: dose: 400.0 mg/kg/injection, schedule: Q01DX009 (ip), vehicle: Klucel (hydroxypropylcellulose) (HPC).

For the molecule `COc1cc(NC(N)=O)ccc1Nc1c2ccc(N)cc2nc2cc(N)ccc12`, the T/C reads like this: under setting [1], 93 % of control; under setting [2], 111 % of control; under setting [3], 101 % of control; (dose: 4.0 mg/kg/injection, schedule: Q01DX009 (ip), vehicle: saline) 86 % of control; (dose: 8.0 mg/kg/injection, schedule: Q01DX009 (ip), vehicle: saline) 93 % of control; (dose: 16.0 mg/kg/injection, schedule: Q01DX009 (ip), vehicle: saline) 98 % of control.
`Nc1cccc(=O)[nH]1`: the T/C reads like this: (dose: 25.0 mg/kg/injection, schedule: Q01DX009 (ip), vehicle: suspension in saline) 93 % of control; (dose: 50.0 mg/kg/injection, schedule: Q01DX009 (ip), vehicle: suspension in saline) 95 % of control; (dose: 100.0 mg/kg/injection, schedule: Q01DX009 (ip), vehicle: suspension in saline) 94 % of control; (dose: 200.0 mg/kg/injection, schedule: Q01DX009 (ip), vehicle: suspension in saline) 94 % of control; (dose: 400.0 mg/kg/injection, schedule: Q01DX009 (ip), vehicle: suspension in saline) 93 % of control.
For `Cc1cc2nc(Cc3nc4cc(C)c(C)cc4[nH]3)[nH]c2cc1C`, the T/C was 94 % of control under setting [4], 93 % of control under setting [5] and 88 % of control under setting [6].
Turning to `CCOC1=Cc2c(oc3c(C(C)(C)C)cc(OCC)cc23)OC(C(C)(C)C)=C1`, the T/C reads like this: (dose: 1.56 mg/kg/injection, schedule: Q01DX009 (ip), vehicle: saline with Tween-80) 97 % of control and 107 % of control; (dose: 3.12 mg/kg/injection, schedule: Q01DX009 (ip), vehicle: saline with Tween-80) 97 % of control and 104 % of control; under setting [7], 102 % of control; under setting [8], 97 % of control and 106 % of control; under setting [9], 113 % of control and 91 % of control; under setting [4], 89 % of control and 101 % of control.
Consider `C1OCN2CSCC12` (configuration not stated), for which the T/C was 106 % of control under setting [8]; 94 % of control and 99 % of control under setting [9]; 92 % of control and 99 % of control under setting [4]; 108 % of control and 109 % of control under setting [5]; 109 % of control and 90 % of control under setting [6].
For `C[C@@H]1CN(C(=O)CCOS(C)(=O)=O)[C@@H](C)CN1C(=O)CCOS(C)(=O)=O`, the T/C (dose: 200.0 mg/kg/injection, schedule: Q01DX009 (ip), vehicle: saline) was 172 % of control.
`CNC(=S)N/N=C(/C)CCc1c(C)nn(C(=S)NC)c1C`: the T/C reads like this: (dose: 12.5 mg/kg/injection, schedule: Q01DX009 (ip), vehicle: Klucel (hydroxypropylcellulose) (HPC)) 103 % of control; under setting [10], 106 % of control; under setting [11], 102 % of control.
For `COc1ccc(CC2C(=O)NC(C)C(=O)N(C)C3C(=O)N(C)C(Cc4ccc(O)c(c4)Oc4ccc(cc4)C3O)C(=O)NC(C)C(=O)NC(C)C(=O)N2C)cc1` (configuration not stated), the T/C reads like this: (dose: 0.25 mg/kg/injection, schedule: Q01DX005 (ip), vehicle: saline with Tween-80) 123 % of control; (dose: 0.25 mg/kg/injection, schedule: Q01DX005 (iv), vehicle: saline with Tween-80) 89 % of control and 107 % of control; (dose: 0.5 mg/kg/injection, schedule: Q01DX005 (iv), vehicle: saline with Tween-80) 98 % of control and 100 % of control; (dose: 0.5 mg/kg/injection, schedule: Q01DX009 (ip), vehicle: saline with Tween-80) 174 % of control; (dose: 1.0 mg/kg/injection, schedule: Q01DX005 (iv), vehicle: saline with Tween-80) 98 % of control and 99 % of control; (dose: 2.0 mg/kg/injection, schedule: Q01DX005 (iv), vehicle: saline with Tween-80) 98 % of control and 104 % of control. The T/C (dose: 2.0 mg/kg/injection, schedule: Q01DX009 (ip), vehicle: saline with Tween-80) is 152 % of control.
On to `CC1=C(C(N)=O)C(c2ccccc2)NC(=S)N1` (configuration not stated), for which the T/C reads like this: under setting [10], 106 % of control; under setting [11], 105 % of control; under setting [12], 100 % of control; under setting [13], 117 % of control.
As for `CCn1c(-c2ccc(OC(C)=O)cc2)c(C)c2cc(OC(C)=O)ccc21`, the T/C is, setting by setting: under setting [10], 104 % of control; under setting [11], 97 % of control; under setting [12], 97 % of control; under setting [13], 87 % of control; under setting [14], 107 % of control.
With `CC(C)=CCC/C(C)=C\C=N\NS(=O)(=O)c1ccc([N+](=O)[O-])cc1`, the T/C was 89 % of control under setting [7], 93 % of control under setting [8], 100 % of control under setting [9] and 94 % of control under setting [4].
Turning to `CC(C)[NH-].CC(C)[NH-].[Cl][Pt+2][Cl]`, the T/C was 122 % of control (dose: 1.56 mg/kg/injection, schedule: Q01DX009 (ip), vehicle: other) and 120 % of control (dose: 3.12 mg/kg/injection, schedule: Q01DX009 (ip), vehicle: other).
On to `CCC1CC2CN(CCc3c([nH]c4ccccc34)C(C(=O)OC)(c3cc4c(cc3OC)N(C)C3C(O)(C(=O)OC)C(OC(C)=O)C5(CC)C=CCN6CCC43C65)C2)C1` (configuration not stated), for which the T/C by setting is: (dose: 0.06 mg/kg/injection, schedule: Q01DX009 (ip), vehicle: saline) 111 % of control; (dose: 0.06 mg/kg/injection, schedule: Q01DX009 (ip), vehicle: suspension in saline) 116 % of control; (dose: 0.12 mg/kg/injection, schedule: Q01DX009 (ip), vehicle: suspension in saline) 114 % of control; (dose: 0.13 mg/kg/injection, schedule: Q01DX009 (ip), vehicle: saline) 110 % of control; under setting [1], 175 % of control; under setting [2], 208 % of control. Further, the T/C is, setting by setting: under setting [3], 248 % of control; (dose: 2.0 mg/kg/injection, schedule: Q01DX009 (ip), vehicle: suspension in saline) 226 % of control.
As for `O=C1C=CC(=O)O1` (tested in a mixture with another compound), the T/C runs as follows: (dose: 12.5 mg/kg/injection, schedule: Q01DX009 (ip), vehicle: saline) 101 % of control; (dose: 12.5 mg/kg/injection, schedule: Q04DX003 (ip), vehicle: saline) 104 % of control; (dose: 25.0 mg/kg/injection, schedule: Q01DX009 (ip), vehicle: saline) 113 % of control; (dose: 25.0 mg/kg/injection, schedule: Q04DX003 (ip), vehicle: saline) 101 % of control and 106 % of control; (dose: 50.0 mg/kg/injection, schedule: Q01DX009 (ip), vehicle: saline) 117 % of control; (dose: 50.0 mg/kg/injection, schedule: Q04DX003 (ip), vehicle: saline) 108 % of control. The T/C (dose: 400.0 mg/kg/injection, schedule: Q01DX009 (ip), vehicle: saline) was 123 % of control.
For `O=C1C=CC(=O)N1c1ccc(Cl)cc1`, the T/C by setting is: (dose: 0.31 mg/kg/injection, schedule: Q01DX009 (ip), vehicle: Klucel (hydroxypropylcellulose) (HPC)) 100 % of control and 102 % of control; (dose: 0.63 mg/kg/injection, schedule: Q01DX009 (ip), vehicle: Klucel (hydroxypropylcellulose) (HPC)) 111 % of control and 86 % of control; (dose: 1.25 mg/kg/injection, schedule: Q01DX009 (ip), vehicle: Klucel (hydroxypropylcellulose) (HPC)) 96 % of control and 100 % of control; (dose: 2.5 mg/kg/injection, schedule: Q01DX009 (ip), vehicle: Klucel (hydroxypropylcellulose) (HPC)) 100 % of control.
As to `Cc1ccc(C2NC(=S)N3C(c4ccc(C)cc4)NC(=S)N23)cc1` (configuration not stated), the T/C is, setting by setting: under setting [10], 119 % of control; under setting [11], 114 % of control; under setting [12], 118 % of control; under setting [13], 109 % of control and 88 % of control; under setting [14], 114 % of control and 105 % of control; (dose: 800.0 mg/kg/injection, schedule: Q01DX009 (ip), vehicle: Klucel (hydroxypropylcellulose) (HPC)) 101 % of control.
As for `CC(=O)NC(Cc1ccc(F)cc1)C(=O)O` (configuration not stated), the T/C runs as follows: under setting [9], 123 % of control; under setting [4], 121 % of control; under setting [5], 121 % of control; under setting [6], 110 % of control; (dose: 400.0 mg/kg/injection, schedule: Q01DX009 (ip), vehicle: saline with Tween-80) 111 % of control; (dose: 800.0 mg/kg/injection, schedule: Q01DX009 (ip), vehicle: saline with Tween-80) 121 % of control.
